Source: ChEMBL document CHEMBL1201862, “PubChem BioAssay data set” (2004)
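How tested: cells in 96-well plates exposed to compound for 48 hours at five concentrations. GI50 marks 50% less growth.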 Calls of active or inactive are those of the source. No stated cut-off is given here; in the data, active = GI50 up to about 1.1 µM and inactive = higher.

How the values were obtained:
Assay in all cases: DTP human tumour cell line panel, 48 h
HCT-116 = system: HCT-116
HCT-15 = system: HCT-15
MDA-N = system: MDA-N
TK-10 = system: TK-10
LOX IMVI = system: LOX IMVI
KM12 = system: KM12
SF-295 = system: SF-295
MOLT-4 = system: MOLT-4
SN12C = system: SN12C
UACC-62 = system: UACC-62
SF-268 = system: SF-268
Hs-578T = system: Hs-578T
OVCAR-4 = system: OVCAR-4
NCI-H226 = system: NCI-H226
UACC-257 = system: UACC-257
NCI/ADR-RES = system: NCI/ADR-RES
A498 = system: A498
OVCAR-8 = system: OVCAR-8
OVCAR-3 = system: OVCAR-3

| SMILES | GI50 (HCT-116) | GI50 (HCT-15) [µM] | GI50 (MDA-N) | GI50 (TK-10) | GI50 (LOX IMVI) | GI50 (KM12) | GI50 (SF-295) | GI50 (MOLT-4) | GI50 (SN12C) | GI50 (UACC-62) | GI50 (SF-268) | GI50 (Hs-578T) | GI50 (OVCAR-4) | GI50 (NCI-H226) | GI50 (UACC-257) | GI50 (NCI/ADR-RES) | GI50 (A498) | GI50 (OVCAR-8) | GI50 (OVCAR-3) |
| --- | --- | --- | --- | --- | --- | --- | --- | --- | --- | --- | --- | --- | --- | --- | --- | --- | --- | --- | --- |
| CC(C)=CCNc1ncnc2c1c(C#N)cn2C1OC(CO)C(O)C1O (stereo not given) | 4.61 µM (inactive) | 0.603 | 42.1 µM (inactive) | 1.21 µM (inactive) | > 79.8 µM (inactive) | 1.36 µM (inactive) | > 100 µM (inactive) | 65.2 µM (inactive) | 12.7 µM (inactive) | 39.7 µM (inactive) | > 100 µM (inactive) | 56.9 µM (inactive) | 1.1 µM (active) | 39.2 µM (inactive) | > 100 µM (inactive) | > 82 µM (inactive) | 24 µM (inactive) | 50.7 µM (inactive) | 3.66 µM (inactive) |
| COc1ccc(CCNC(=O)Cc2cc(OC)c(OC)cc2CO)cc1OC | > 100 µM (inactive) | > 100 | > 100 µM (inactive) | > 100 µM (inactive) | > 100 µM (inactive) | > 100 µM (inactive) | > 100 µM (inactive) | > 100 µM (inactive) | > 100 µM (inactive) | > 100 µM (inactive) | > 100 µM (inactive) | > 100 µM (inactive) | > 100 µM (inactive) | > 100 µM (inactive) | > 100 µM (inactive) | > 100 µM (inactive) | > 100 µM (inactive) | > 100 µM (inactive) | > 100 µM (inactive) |
| CC(C)=CC(=O)C[C@H]1C(=O)O[C@@H]2C[C@H]3C(C)=CC(=O)[C@@H](O)[C@]3(C)[C@H]3[C@@]4(O)OC[C@]32[C@@H]1[C@@H](C)[C@H]4O | < 0.01 µM (active) | 0.0382 | < 0.0189 µM (active) | 0.019 µM (active) | < 0.01 µM (active) | < 0.0169 µM (active) | 0.023 µM (active) | < 0.01 µM (active) | 0.043 µM (active) | 0.0313 µM (active) | 0.0275 µM (active) | 0.029 µM (active) | 0.0364 µM (active) | < 0.01 µM (active) | 0.0185 µM (active) | 0.631 µM (active) | 0.236 µM (active) | < 0.01 µM (active) | < 0.0146 µM (active) |
| C/N=c1\sc2nc(C#N)c(C#N)nc2n1C | 18.9 µM (inactive) | 19.2 | 22.4 µM (inactive) | 25.5 µM (inactive) | 17.8 µM (inactive) | 27.5 µM (inactive) | 18 µM (inactive) | 22.8 µM (inactive) | 37.9 µM (inactive) | 18.3 µM (inactive) | 32.4 µM (inactive) | 31.1 µM (inactive) | 22.9 µM (inactive) | 16.2 µM (inactive) | 24.2 µM (inactive) | 25.5 µM (inactive) | 20.5 µM (inactive) | > 10 µM (inactive) | 24.5 µM (inactive) |
| O=C1c2cccc3cc([N+](=O)[O-])cc(c23)C(=O)N1CCCN1CCN(CCCNc2ccc3ncn4c5ccccc5c(=O)c2c34)CC1 | < 0.005 µM (active) | < 0.005 | < 0.005 µM (active) | < 0.005 µM (active) | < 0.005 µM (active) | < 0.005 µM (active) | < 0.005 µM (active) | < 0.005 µM (active) | < 0.005 µM (active) | < 0.005 µM (active) | < 0.005 µM (active) | < 0.005 µM (active) | 0.00547 µM (active) | < 0.005 µM (active) | < 0.005 µM (active) | < 0.005 µM (active) | < 0.005 µM (active) | < 0.005 µM (active) | 0.0358 µM (active) |
| O=C1C/C(=C\O)C(=O)c2ccccc2N1 | > 100 µM (inactive) | > 100 | > 100 µM (inactive) | > 100 µM (inactive) | > 100 µM (inactive) | > 100 µM (inactive) | > 100 µM (inactive) | > 100 µM (inactive) | > 100 µM (inactive) | > 100 µM (inactive) | > 100 µM (inactive) | > 100 µM (inactive) | > 100 µM (inactive) | > 100 µM (inactive) | > 100 µM (inactive) | > 100 µM (inactive) | > 100 µM (inactive) | > 100 µM (inactive) | > 100 µM (inactive) |
| C[N+]1(CCC(=O)c2ccco2)CC2CCC(CC2)C1 (stereo not given) | > 100 µM (inactive) | > 100 | > 100 µM (inactive) | > 100 µM (inactive) | > 100 µM (inactive) | > 100 µM (inactive) | > 100 µM (inactive) | > 100 µM (inactive) | > 100 µM (inactive) | > 100 µM (inactive) | > 100 µM (inactive) | > 100 µM (inactive) | > 100 µM (inactive) | > 100 µM (inactive) | > 100 µM (inactive) | > 100 µM (inactive) | > 100 µM (inactive) | > 100 µM (inactive) | > 100 µM (inactive) |
| CCOC(=O)/C=C(/C(=O)OCC)n1ccc(=O)n(Cc2cnnn2COCCOC(C)=O)c1=O | 18.9 µM (inactive) | 8.77 | 23.2 µM (inactive) | 7.26 µM (inactive) | 17.1 µM (inactive) | 28.6 µM (inactive) | > 100 µM (inactive) | 4.51 µM (inactive) | 22.1 µM (inactive) | 17.3 µM (inactive) | 20 µM (inactive) | 21 µM (inactive) | 20 µM (inactive) | 24.3 µM (inactive) | 16.8 µM (inactive) | 21.9 µM (inactive) | 24 µM (inactive) | 16.6 µM (inactive) | 14.9 µM (inactive) |
| COc1ccc(C(=C2C(=O)OC(=O)C2=C(C)C)c2ccc(OC)cc2)cc1 | > 100 µM (inactive) | 51.9 | > 100 µM (inactive) | > 100 µM (inactive) | 34.4 µM (inactive) | 29.2 µM (inactive) | 73.5 µM (inactive) | 57.4 µM (inactive) | > 100 µM (inactive) | > 100 µM (inactive) | > 100 µM (inactive) | 95.5 µM (inactive) | 29.6 µM (inactive) | > 100 µM (inactive) | > 100 µM (inactive) | 39.5 µM (inactive) | > 100 µM (inactive) | 47.4 µM (inactive) | 22 µM (inactive) |
| OC1(C(F)(F)F)OCCN=C1C(F)(F)F (stereo not given) | 51.5 µM (inactive) | 64.4 | > 100 µM (inactive) | > 100 µM (inactive) | > 100 µM (inactive) | > 100 µM (inactive) | > 100 µM (inactive) | 69.8 µM (inactive) | 65.9 µM (inactive) | > 100 µM (inactive) | 53.8 µM (inactive) | 17.2 µM (inactive) | > 100 µM (inactive) | > 100 µM (inactive) | > 100 µM (inactive) | 88.3 µM (inactive) | > 100 µM (inactive) | 53.5 µM (inactive) | 52 µM (inactive) |
| O=c1ccn(C2OC(CO)C(O)C2[Se]c2ccccc2)c(=O)[nH]1 (stereo not given) | > 100 µM (inactive) | > 100 | > 100 µM (inactive) | 0.24 µM (active) | > 100 µM (inactive) | > 100 µM (inactive) | > 100 µM (inactive) | > 100 µM (inactive) | > 100 µM (inactive) | 0.353 µM (active) | > 100 µM (inactive) | > 100 µM (inactive) | > 100 µM (inactive) | > 100 µM (inactive) | 2.77 µM (inactive) | > 100 µM (inactive) | > 100 µM (inactive) | > 100 µM (inactive) | > 100 µM (inactive) |
| COC(=O)C(=O)C(C(=O)C(=O)Nc1ccccc1OC)c1nc2ccc([N+](=O)[O-])cc2nc1O (stereo not given) | > 100 µM (inactive) | 41.4 | 32.7 µM (inactive) | > 100 µM (inactive) | 96.2 µM (inactive) | 54.3 µM (inactive) | > 100 µM (inactive) | > 100 µM (inactive) | > 100 µM (inactive) | > 100 µM (inactive) | > 100 µM (inactive) | 78.2 µM (inactive) | 83.8 µM (inactive) | > 100 µM (inactive) | > 100 µM (inactive) | > 100 µM (inactive) | > 100 µM (inactive) | > 100 µM (inactive) | > 100 µM (inactive) |
| CC(=O)OCc1ccc2oc(=O)c(C(=O)Oc3ccccc3)cc2c1 | 15.6 µM (inactive) | 19.5 | > 100 µM (inactive) | 23.8 µM (inactive) | > 100 µM (inactive) | > 100 µM (inactive) | > 100 µM (inactive) | > 100 µM (inactive) | 30.1 µM (inactive) | 17.7 µM (inactive) | 55.7 µM (inactive) | > 100 µM (inactive) | > 100 µM (inactive) | > 100 µM (inactive) | > 100 µM (inactive) | > 100 µM (inactive) | > 100 µM (inactive) | > 100 µM (inactive) | > 100 µM (inactive) |
| COc1cccc(-c2nc(N)c(C#N)c3c2CCS(=O)(=O)c2ccc(C)cc2-3)c1 | 20 µM (inactive) | 7.87 | 3.08 µM (inactive) | > 68.9 µM (inactive) | 31.4 µM (inactive) | 7.85 µM (inactive) | 23.6 µM (inactive) | 22.9 µM (inactive) | 44.4 µM (inactive) | 17.7 µM (inactive) | 31.6 µM (inactive) | 13.3 µM (inactive) | > 100 µM (inactive) | > 51.5 µM (inactive) | 34.1 µM (inactive) | 15.2 µM (inactive) | 30.1 µM (inactive) | 26.1 µM (inactive) | 21 µM (inactive) |
| O=C(O)/C=C(/CC(=O)O)C(=O)O | 18.2 µM (inactive) | 22.7 | 22.1 µM (inactive) | 23.2 µM (inactive) | 22.7 µM (inactive) | 23.8 µM (inactive) | 18.1 µM (inactive) | 19.1 µM (inactive) | 19.4 µM (inactive) | 18.2 µM (inactive) | 19 µM (inactive) | 19.9 µM (inactive) | 25.8 µM (inactive) | 21.6 µM (inactive) | 33.1 µM (inactive) | 21 µM (inactive) | 16.3 µM (inactive) | 21.6 µM (inactive) | 15.7 µM (inactive) |
